According to US20120115845A1, “THERAPEUTIC AGENTS” (priority 2007, published 2012):

How the values were obtained:
human GHS receptor [1] = molecular target: T1, human GHS receptor (Homo sapiens, UniProt Q92847); assay: h bind IC50 (binding assay, Table 1); conditions: human receptor; Table 1
human GHS receptor [2] = molecular target: T1, human GHS receptor; assay: Ghrelin IP1 agonist assay (IP1 HTRF); format: cell-based; parameters: expressed in transfected cells; host or cells: HEK293s; conditions: for Emax: 2 h, agonist effect as % maximal effect of GHRP-6 (5 μM), read-out: h IP1 ag %; for EC50: HEK293s cells stably expressing human GHS receptor, 2 hours at 37° C., read-out: h IP1 ag EC50
Procedure, shortened: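 Cells: HEK293s stably expressing human GHS receptor, in stimulation buffer containing 0.02% fatty acid free BSA.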

T1 sequence (Q92847 whole entry): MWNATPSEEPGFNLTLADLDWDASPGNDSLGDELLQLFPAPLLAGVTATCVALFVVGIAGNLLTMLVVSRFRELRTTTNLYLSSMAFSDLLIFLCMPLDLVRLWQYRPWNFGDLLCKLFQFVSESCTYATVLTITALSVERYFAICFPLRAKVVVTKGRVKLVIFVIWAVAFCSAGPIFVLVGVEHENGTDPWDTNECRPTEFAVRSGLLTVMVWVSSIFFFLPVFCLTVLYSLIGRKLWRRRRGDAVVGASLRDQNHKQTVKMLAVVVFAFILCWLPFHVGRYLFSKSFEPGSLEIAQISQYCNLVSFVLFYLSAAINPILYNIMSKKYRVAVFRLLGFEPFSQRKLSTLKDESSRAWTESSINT

CCc1ccccc1C(=O)NC(=O)Nc1nc2ccc(S(C)(=O)=O)cc2s1 [Example 141, 2-Ethyl-N-[(6-methylsulfonylbenzothiazol-2-yl)carbamoyl]benzamide]
IC50 (human GHS receptor [1]): 0.111 µM
Emax (human GHS receptor [2]): 22.7%
EC50 (human GHS receptor [2]): 0.184 µM

CCOc1ccc(Cl)c(C(=O)NC(=O)Nc2nc3ccc(S(C)(=O)=O)cc3s2)c1 [Example 53, 2-Chloro-5-ethoxy-N-(6-(methylsulfonyl)benzothiazol-2-ylcarbamoyl)benzamide]
IC50 (human GHS receptor [1]): 0.01 µM
Emax (human GHS receptor [2]): 0%
EC50 (human GHS receptor [2]): ≥ 25 µM

CN(CCS(=O)(=O)c1ccc2nc(NC(=O)NC(=O)c3ccccc3Cl)sc2c1)CC1CCCO1 (stereo not drawn) [Example 26, 2-Chloro-N-[[6-[2-(methyl-(oxolan-2-ylmethyl)amino)ethylsulfonyl]benzothiazol-2-yl]carbamoyl]benzamide]
IC50 (human GHS receptor [1]): 0.428 µM
Emax (human GHS receptor [2]): 26.1%
EC50 (human GHS receptor [2]): 0.623 µM

CS(=O)(=O)c1ccc2nc(NC(=O)NC(=O)c3cc(N4CC=CC4)ccc3Cl)sc2c1 [Example 50, 2-Chloro-5-(2,5-dihydro-pyrrol-1-yl)-N-(6-(methylsulfonyl)benzothiazol-2-ylcarbamoyl)benzamide]
IC50 (human GHS receptor [1]): 0.001 µM
Emax (human GHS receptor [2]): 0%
EC50 (human GHS receptor [2]): ≥ 25 µM

O=C(NC(=O)c1ccccc1Cl)Nc1nc2ccc(S(=O)(=O)CCN3CCC3)cc2s1 [Example 13, N-[[6-[2-(Azetidin-1-yl)ethylsulfonyl]benzothiazol-2-yl]carbamoyl]-2-chloro-benzamide]
IC50 (human GHS receptor [1]): 0.162 µM
Emax (human GHS receptor [2]): 52.5%
EC50 (human GHS receptor [2]): 0.0555 µM

CN(C)C1CCN(c2ccc(Cl)c(C(=O)NC(=O)Nc3nc4ccc(S(C)(=O)=O)cc4s3)c2)CC1 [Example 236, 2-chloro-5-(4-(dimethylamino)piperidin-1-yl)-N-(6-(methylsulfonyl)benzo[d]thiazo1-2-ylcarbamoyl) benzamide]
IC50 (human GHS receptor [1]): 4.09 µM
Emax (human GHS receptor [2]): 3.72%
EC50 (human GHS receptor [2]): ≥ 20 µM

CN1CCN(CCCS(=O)(=O)c2ccc3nc(NC(=O)NC(=O)c4cc(N5CCCC5)ccc4Cl)sc3c2)CC1 [Example 87, 2-Chloro-N-(6-(3-(4-methylpiperazin-1-yl)propylsulfonyl)benzothiazol-2-ylcarbamoyl)-5-(pyrrolidin-1-yl)benzamide]
IC50 (human GHS receptor [1]): 0.0002 µM
Emax (human GHS receptor [2]): 0.631%
EC50 (human GHS receptor [2]): 6.56 µM

O=C(NC(=O)c1ccccc1Cl)Nc1nc2ccc(S(=O)(=O)CCCNCC3CC3)cc2s1 [Example 151, 2-Chloro-N-[[6-[3-(cyclopropylmethylamino)propylsulfonyl]benzothiazol-2-yl]carbamoyl]benzamide]
IC50 (human GHS receptor [1]): 0.0108 µM
Emax (human GHS receptor [2]): 74.3%
EC50 (human GHS receptor [2]): 0.00223 µM

O=C(NC(=O)c1cc(-n2cccc2)ccc1Cl)Nc1nc2ccc(S(=O)(=O)CCN3CCNCC3)cc2s1 [Example 79, 2-Chloro-N-[[6-(2-piperazin-1-ylethylsulfonyl)benzothiazol-2-yl]carbamoyl]-5-pyrrol-1-yl-benzamide]
IC50 (human GHS receptor [1]): 0.0006 µM
Emax (human GHS receptor [2]): 1.95%
EC50 (human GHS receptor [2]): ≥ 25 µM

CS(=O)(=O)c1ccc2nc(NC(=O)NC(=O)c3cc(Br)ccc3Cl)sc2c1 [Example 161, 5-Bromo-2-chloro-N-[(6-methylsulfonylbenzothiazol-2-yl)carbamoyl]benzamide]
IC50 (human GHS receptor [1]): 0.105 µM
Emax (human GHS receptor [2]): 56%
EC50 (human GHS receptor [2]): 0.00618 µM

CS(=O)(=O)c1ccc2nc(NC(=O)NC(=O)c3ccccc3Cl)sc2c1 [Example 102, 2-Chloro-N-[(6-methylsulfonylbenzothiazol-2-yl)carbamoyl]benzamide]
IC50 (human GHS receptor [1]): 0.116 µM
Emax (human GHS receptor [2]): 24.2%
EC50 (human GHS receptor [2]): 0.0578 µM

O=C(NC(=O)c1ccccc1Cl)Nc1nc2ccc(S(=O)(=O)[C@@H]3CCNC3)cc2s1 [Example 172, 2-Chloro-N-[[6-[(3R)-pyrrolidin-3-yl]sulfonylbenzothiazol-2-yl]carbamoyl]benzamide]
IC50 (human GHS receptor [1]): 0.0283 µM
Emax (human GHS receptor [2]): 44.4%
EC50 (human GHS receptor [2]): 0.00731 µM

CC(C)(C)OC(=O)N1CCC(Oc2ccc(Cl)c(C(=O)NC(=O)Nc3nc4ccc(S(C)(=O)=O)cc4s3)c2)CC1 [Example 243, tert-butyl 4-(4-chloro-3-(6-(methylsulfonyl)benzo[d]thiazol-2-ylcarbamoyl-carbamoyl)phenoxy) piperidine-1-carboxylate]
IC50 (human GHS receptor [1]): 0.0143 µM
Emax (human GHS receptor [2]): 7.67%
EC50 (human GHS receptor [2]): 0.00934 µM
